Where two headings read alike, the source gives them in different places.
Assays:
[1] = Refractive index (Abbe-3L refractometer); format: physicochemical; details: 23° C.
Method: (§1) The densities of the ionic liquids or, more correctly, […] (used synonymously except as indicated otherwise explicitly or by context) was determined at 23° C. by placing 2.0 mL of the ionic liquid in a 2.0 mL volumetric tube and weighing by difference. The melting points of the ionic liquids were determined using a Perkin Elmer Pyris 1 Differential Scanning calorimeter (Boston, Mass.). Typical methods involved using a 10° C./min temperature ramp to determine and identify the first and second order thermal transitions. […] For solid compounds, the melting points were verified using a capillary melting point apparatus. Refractive index measurements were conducted at 23° C. using a Bausch & Lomb Abbe-3L refractometer.

[2] = Surface tension (DuNuoy Tensiometer); format: physicochemical; details: room temperature (23° C.)
[3] = Density (2.0 mL volumetric tube, weighing by difference); format: physicochemical; details: 23° C.
Method: as §1

[4] = values taken from reference 31, cited from earlier work
[5] = Solvation interaction parameters by inverse gas-liquid chromatography (Abraham solvation model); format: physicochemical
Method: The preparation of the capillary columns for inverse gas-liquid chromatographic analysis was performed using a previously described procedure.^31 All capillary columns had efficiencies between 2100 to 2500 plates/meter. Characterization of the capillary columns and probe molecule descriptions are listed in supplemental information. Multiple linear regression analysis (MLRA) and statistical calculations were performed using the program Analyse-it (Microsoft, USA).
We have previously reported that the Abraham solvation model, a linear free energy approach that utilizes inverse gas-liquid chromatography to describe the solvation properties of a liquid, can be used to characterize room temperature ionic liquids.^31 Described by equation 1, the model provides the so-called “interaction parameters” (r, s, a, b, l) by using multiple linear regression analysis to fit the retention factor (k, determined chromatographically) to the solute descriptors (R2, π2^H, α2^H, β2^H, log L^16) for a wide variety of probe solute molecules. […] The solvation properties of four dicationic ionic liquids (see Table 4) were evaluated and the interaction parameters compared to those obtained for their traditional monocationic analogues 1-butyl-3-methylimidazolium and 1-butyl-1-methylpyrrolidinium ionic liquids.
Previously we characterized a large number of room temperature ionic liquids in terms of multiple solvation interactions using the solvation parameter model, shown in equation 3.^44 log k=c+rR2+sπ2^H+aα2^H+bβ2^H+l log L^16 [3] This approach utilizes inverse gas-liquid chromatography and allows the use of a large number of probe molecules to deconvolute solute retention in terms of the type and magnitude of individual solvation interactions. The solute descriptors (R2, π2^H, α2^H, β2^H, log L^16) from Equation 3 are obtained from the literature for many probe molecules containing a variety of functional groups.^45 The retention factor is determined chromatographically. The solute descriptors and retention factors are subjected to multiple linear regression analysis to obtain the interaction parameter coefficients (r, s, a, b, l), which ultimately characterize the stationary phase: r is the ability of the diionic liquid containing-stationary phase to interact with π and n electrons of the solute, s is a measure of the dipolarity/polarizability of the diionic liquid containing-stationary phase, a defines the diionic liquid containing-stationary phase hydrogen bond basicity, b is a measure of the hydrogen bond acidity, and/refers to the ability of the diionic liquid containing-stationary phase to separate adjacent members of a homologous series.^46
(§2) Test solutes used to determine interaction parameters and solvation thermodynamics were dissolved in dichloromethane. A Hewlett-Packard model 5890 gas chromatograph and a Hewlett-Packard 6890 series integrator were used for all separations. Split injection and flame ionization detection were utilized with injection and detection temperatures of 250° C. Helium was used as the carrier gas with a column inlet pressure of 3.1 psi and flow rate of 1.0 mL/min. Methane was used to determine the dead volume of the column. Multiple linear regression analysis and statistical calculations were performed using the program Analyze-it (Microsoft).

[6] = Solvation thermodynamics of probe molecules (van't Hoff plots, GC); format: physicochemical
From the text: Solvation thermodynamics can be determined chromatographically by recognizing that the Gibbs free energy change, ΔG°, of a solute between the mobile phase and the stationary phase can be described by equation 1:
[formula] where k is the solute retention factor and Φ is the column phase ratio. An expression shown in equation 2 can then be derived and illustrates the dependence of enthalpy, ΔH°, and entropy, ΔS°, on the change of the retention factor with temperature:
[formula] A van't Hoff plot of ln k versus 1/T provides the entropy (intercept) and enthalpy (slope) and describes a solute's transfer from the gas phase to the ionic liquid stationary phase. In this work, the solvation thermodynamics were determined for seven different probe molecules, listed in Table D, on two cross-linked ionic liquid phases and one ionic liquid stationary phase. […] For each probe molecule on each stationary phase, three separate van't Hoff plots were constructed so that changes in the probe molecule retention factor could be used to provide an error for each thermodynamic parameter. The probe molecule retention factors were determined at six different temperatures to obtain the highest possible correlation coefficient (>0.989).
as §2

[7] = probe 2-Chloroaniline, 40-100° C.
[8] = probe Ethyl Phenyl Ether, 35-75° C.

Molecule: Cn1cc[n+](CCCCCCCCCCCC[n+]2ccn(C)c2)c1.O=S(=O)([N-]S(=O)(=O)C(F)(F)F)C(F)(F)F.O=S(=O)([N-]S(=O)(=O)C(F)(F)F)C(F)(F)F [C12(mim)2-NTf2, 1,12-di(3-methylimidazolium)dodecane di-bis[(trifluoromethyl)sulfonyl]imidate]
- Refractive Index [1]: 1.443
- Surface Tension [2]: 42.3 dynes/cm
- Miscibility with Heptane: Immiscible
- Miscibility with Water: Immiscible
- Density [3]: 1.40 g/mL

Molecule: CCCCn1cc[n+](CCCCCCCCC[n+]2ccn(CCCC)c2)c1.O=S(=O)([N-]S(=O)(=O)C(F)(F)F)C(F)(F)F.O=S(=O)([N-]S(=O)(=O)C(F)(F)F)C(F)(F)F [C9(bim)2-NTf2, 1,9-di(3-butylimidazolium)nonane di-bis[(trifluoromethyl)sulfonyl]imidate]
- Refractive Index [1]: 1.446
- Surface Tension [2]: 38.0 dynes/cm
- Miscibility with Heptane: Immiscible
- Miscibility with Water: Immiscible
- Density [3]: 1.35 g/mL

Molecule: C=Cn1cc[n+](CCCCCCCCC[n+]2ccn(C=C)c2)c1.O=S(=O)([N-]S(=O)(=O)C(F)(F)F)C(F)(F)F.O=S(=O)([N-]S(=O)(=O)C(F)(F)F)C(F)(F)F [C9(vim)2-NTf2]
- Refractive Index [1]: 1.457
- Density [3]: 1.47 g/mL

Molecule: Cn1cc[n+](CCCCCCCCCCCC[n+]2ccn(C)c2)c1.F[P-](F)(F)(F)(F)F.F[P-](F)(F)(F)(F)F [C12(mim)2-PF6, 1,12-di(3-methylimidazolium)dodecane di-hexafluorophosphate]
- Refractive Index [1]: 1.436
- Surface Tension [2]: 53.4 dynes/cm
- Miscibility with Heptane: Immiscible
- Miscibility with Water: Immiscible
- Density [3]: 1.36 g/mL

Molecule: CCCC[N+]1(C)CCCC1.O=S(=O)([N-]S(=O)(=O)C(F)(F)F)C(F)(F)F [BMPY—NTf2, 1-butyl-1-methylpyrrolidinium bis[(trifluoromethylsulfonyl)imide]]
- a (hydrogen bond basicity) ([4]; 40° C.): 2.08
- b (hydrogen bond acidity) ([4]; 40° C.): 0.16
- c (interaction parameter table, constant) ([4]; 40° C.): −2.78
- l (dispersion forces) ([4]; 40° C.): 0.68
- r (interaction via nonbonding and π-electrons) ([4]; 40° C.): 0
- s (dipolarity/polarizability) ([4]; 40° C.): 1.69
- a (hydrogen bond basicity) ([4]; 70° C.): 1.78
- b (hydrogen bond acidity) ([4]; 70° C.): 0
- c (interaction parameter table, constant) ([4]; 70° C.): −2.80
- l (dispersion forces) ([4]; 70° C.): 0.56
- r (interaction via nonbonding and π-electrons) ([4]; 70° C.): 0
- s (dipolarity/polarizability) ([4]; 70° C.): 1.53
- a (hydrogen bond basicity) ([4]; 100° C.): 1.55
- b (hydrogen bond acidity) ([4]; 100° C.): 0
- c (interaction parameter table, constant) ([4]; 100° C.): −2.92
- l (dispersion forces) ([4]; 100° C.): 0.48
- r (interaction via nonbonding and π-electrons) ([4]; 100° C.): 0
- s (dipolarity/polarizability) ([4]; 100° C.): 1.44

Molecule: Cc1n(C)cc[n+]1CCCCCCCCC[n+]1ccn(C)c1C.F[B-](F)(F)F.F[B-](F)(F)F [C9(m2im)2-BF4, 1,9-di(2,3-dimethylimidazolium)nonane di-tetrafluoroborate]
- Refractive Index [1]: 1.456
- Surface Tension [2]: 58.1 dynes/cm
- Miscibility with Heptane: Immiscible
- Miscibility with Water: Miscible
- Density [3]: 1.31 g/mL

Molecule: C=Cn1cc[n+](CCCCCCCCCCC[n+]2ccn(C=C)c2)c1.O=S(=O)([N-]S(=O)(=O)C(F)(F)F)C(F)(F)F.O=S(=O)([N-]S(=O)(=O)C(F)(F)F)C(F)(F)F [C11(vim)2-NTf2]
- Refractive Index [1]: 1.457
- Density [3]: 1.44 g/mL

Molecule: 1-vinyl-3-hexylimidazolium bis[(trifluoromethane)sulfonyl]imidate [hvim-NTf2]
- Refractive Index [1]: 1.443
- Density [3]: 1.36 g/mL

Molecule: CCCCn1cc[n+](CCCCCCCCC[n+]2ccn(CCCC)c2)c1.F[P-](F)(F)(F)(F)F.F[P-](F)(F)(F)(F)F [C9(bim)2-PF6, 1,9-di(3-butylimidazolium)nonane di-hexafluorophosphate]
- Refractive Index [1]: 1.439
- Surface Tension [2]: 48.0 dynes/cm
- Miscibility with Heptane: Immiscible
- Miscibility with Water: Immiscible
- Density [3]: 1.30 g/mL

Molecule: 1-vinyl-3-dodecylimidazolium bis[(trifluoromethane)sulfonyl]imidate [dvim-NTf2]
- Refractive Index [1]: 1.448
- Density [3]: 1.23 g/mL

Molecule: C=Cn1cc[n+](CCCCCCCCCCCC[n+]2ccn(C=C)c2)c1.O=S(=O)([N-]S(=O)(=O)C(F)(F)F)C(F)(F)F.O=S(=O)([N-]S(=O)(=O)C(F)(F)F)C(F)(F)F [C12(vim)2-NTf2]
- Refractive Index [1]: 1.458
- Density [3]: 1.42 g/mL

Molecule: CCCCCCCCC[n+]1ccn(C)c1.O=S(=O)([N-]S(=O)(=O)C(F)(F)F)C(F)(F)F [nmim-NTf2]
- Refractive Index [1]: 1.434
- a (hydrogen bond basicity) ([5]; 40° C.): 1.91
- b (hydrogen bond acidity) ([5]; 40° C.): 0.36
- c (interaction parameter table, constant) ([5]; 40° C.): −2.98
- l (dispersion forces) ([5]; 40° C.): 0.75
- r (interaction via nonbonding and π-electrons) ([5]; 40° C.): 0
- s (dipolarity/polarizability) ([5]; 40° C.): 1.62
- a (hydrogen bond basicity) ([5]; 70° C.): 1.57
- b (hydrogen bond acidity) ([5]; 70° C.): 0.18
- c (interaction parameter table, constant) ([5]; 70° C.): −3.05
- l (dispersion forces) ([5]; 70° C.): 0.63
- r (interaction via nonbonding and π-electrons) ([5]; 70° C.): 0
- s (dipolarity/polarizability) ([5]; 70° C.): 1.54
- a (hydrogen bond basicity) ([5]; 100° C.): 1.43
- b (hydrogen bond acidity) ([5]; 100° C.): 0.12
- c (interaction parameter table, constant) ([5]; 100° C.): −3.47
- l (dispersion forces) ([5]; 100° C.): 0.60
- r (interaction via nonbonding and π-electrons) ([5]; 100° C.): 0
- s (dipolarity/polarizability) ([5]; 100° C.): 1.52
- Density [3]: 1.30 g/mL
- ΔHAV ([6]; probe 1-Octanol, 35-75° C.): -14.168 kcal/mol
- ΔSAV ([6]; probe 1-Octanol, 35-75° C.): −151 J/mol*K
- ΔG ([6]; probe 1-Octanol, 50° C.): -2.505 kcal/mol
- ΔHAV [6, 7]: -13.779 kcal/mol
- ΔSAV [6, 7]: −134 J/mol*K
- ΔG ([6]; probe 2-Chloroaniline, 70° C.): -2.7892 kcal/mol
- ΔHAV ([6]; probe Decane, 35-75° C.): -10.848 kcal/mol
- ΔSAV ([6]; probe Decane, 35-75° C.): −127 J/mol*K
- ΔG ([6]; probe Decane, 50° C.): -1.039 kcal/mol
- ΔHAV [6, 8]: -11.119 kcal/mol
- ΔSAV [6, 8]: −121 J/mol*K
- ΔG ([6]; probe Ethyl Phenyl Ether, 50° C.): -1.773 kcal/mol
- ΔHAV ([6]; probe Fluorophenol, 40-100° C.): -11.497 kcal/mol
- ΔSAV ([6]; probe Fluorophenol, 40-100° C.): −121 J/mol*K
- ΔG ([6]; probe Fluorophenol, 70° C.): -1.573 kcal/mol
- ΔHAV ([6]; probe Naphthalene, 40-100° C.): -12.856 kcal/mol
- ΔSAV ([6]; probe Naphthalene, 40-100° C.): −127 J/mol*K
- ΔG ([6]; probe Naphthalene, 70° C.): -2.44 kcal/mol
- ΔHAV ([6]; probe Nitropropane, 27-50° C.): -9.3236 kcal/mol
- ΔSAV ([6]; probe Nitropropane, 27-50° C.): −109 J/mol*K
- ΔG ([6]; probe Nitropropane, 35° C.): -1.296 kcal/mol

Molecule: 1-vinyl-3-nonylimidazolium bis[(trifluoromethane)sulfonyl]imidate [nvim-NTf2]
- Refractive Index [1]: 1.445
- Density [3]: 1.28 g/mL

Molecule: Cc1n(C)cc[n+]1CCC[n+]1ccn(C)c1C.O=S(=O)([N-]S(=O)(=O)C(F)(F)F)C(F)(F)F.O=S(=O)([N-]S(=O)(=O)C(F)(F)F)C(F)(F)F [C3(m2im)2-NTf2, 1,3-di(2,3-dimethylimidazolium)propane di-bis[(trifluoromethyl)sulfonyl]imidate]
- Miscibility with Heptane: Immiscible
- Miscibility with Water: Immiscible

Source: patent US8956445B2, “High stability diionic liquid salts” (Sigma-Aldrich Co., priority 2004, dated 2015)
